From ChEMBL document CHEMBL3045197, “Design and synthesis of new 2-aryl, 3-benzyl-(1,3-oxazolidine or 1,3-thiazolidine)-4-ones as selective cyclooxygenase (COX-2) inhibitors” (Med Chem Res, 2010)
pIC50: −log10 of the molar value.

Experiments:
Ovis aries = organism: Ovis aries; test: Selectivity index, ratio of IC50 for Ovis aries (sheep) COX-1 to IC50 for Ovis aries (sheep) COX-2
[1] = biological target: Prostaglandin G/H synthase 2 (Ovis aries) (UniProt P79208); test: Inhibition of Ovis aries (sheep) COX-2 by Chemoiluminescence assay
Sequence of Prostaglandin G/H synthase 2 (Ovis aries) (P79208 whole entry, looked up): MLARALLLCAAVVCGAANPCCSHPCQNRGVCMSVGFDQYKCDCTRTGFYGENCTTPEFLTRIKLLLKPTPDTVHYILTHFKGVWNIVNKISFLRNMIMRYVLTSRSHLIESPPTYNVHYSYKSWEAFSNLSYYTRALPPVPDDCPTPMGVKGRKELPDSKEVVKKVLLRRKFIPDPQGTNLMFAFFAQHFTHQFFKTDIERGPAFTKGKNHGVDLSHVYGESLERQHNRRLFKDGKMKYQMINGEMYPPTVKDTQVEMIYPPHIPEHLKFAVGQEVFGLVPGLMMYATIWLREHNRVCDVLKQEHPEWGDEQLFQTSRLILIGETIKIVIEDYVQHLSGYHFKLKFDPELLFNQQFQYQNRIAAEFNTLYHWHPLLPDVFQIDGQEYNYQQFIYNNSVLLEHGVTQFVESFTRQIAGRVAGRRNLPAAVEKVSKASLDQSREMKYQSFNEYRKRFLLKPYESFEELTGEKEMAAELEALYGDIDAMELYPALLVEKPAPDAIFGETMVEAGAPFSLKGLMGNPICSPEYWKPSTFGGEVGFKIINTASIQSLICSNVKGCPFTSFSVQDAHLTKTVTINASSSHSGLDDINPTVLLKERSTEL

[2] = biological target: Prostaglandin G/H synthase 1 (Ovis aries) (UniProt P05979); test: Inhibition of Ovis aries (sheep) COX-1 by Chemoiluminescence assay

Row | Structure (SMILES) | Ratio IC50 (Ovis aries) | pIC50 [1] | pIC50 [2]
1 | CS(=O)(=O)c1ccc(C2SCC(=O)N2Cc2ccccc2)cc1 (configuration not stated) | > 312 | 6.49 | < 4.00
2 | CS(=O)(=O)c1ccc(C2OCC(=O)N2Cc2ccccc2)cc1 (configuration not stated) | > 476 | 6.68 | < 4.00
3 | CC1SC(c2ccc(S(C)(=O)=O)cc2)N(Cc2ccccc2)C1=O (racemic) | 222 | 6.47 | 4.12
4 | CC1OC(c2ccc(S(C)(=O)=O)cc2)N(Cc2ccccc2)C1=O (racemic) | 318 | 6.57 | 4.07
